Assays:
Format in all cases: functional
SNB-19 [1] = assay: Growth inhibition of human SNB19 cells assessed as cell growth at 10^-8 M by sulforhodamine B assay; conditions: read-out: Activity
[2] = Growth inhibition of human HCC2998 cells assessed as cell growth at 10^-8 M by sulforhodamine B assay; conditions: HCC 2998, read-out: Activity
NCI-H23 [3] = assay: Growth inhibition of human NCI-H23 cells assessed as cell growth at 10^-8 M by sulforhodamine B assay; conditions: read-out: Activity
SR = assay: Growth inhibition of human SR cells assessed as cell growth at 10^-8 M by sulforhodamine B assay; conditions: read-out: Activity
CCRF-CEM = assay: Growth inhibition of human CCRF-CEM cells assessed as cell growth at 10^-8 M by sulforhodamine B assay; conditions: read-out: Activity
T47D [4] = assay: Growth inhibition of human T47D cells by sulforhodamine B assay
A498 = assay: Growth inhibition of human A498 cells by sulforhodamine B assay
UACC-257 = assay: Growth inhibition of human UACC257 cells by sulforhodamine B assay
MDA-MB-435 = assay: Growth inhibition of human MDA-MB-435 cells by sulforhodamine B assay
SK-OV-3 = assay: Growth inhibition of human SKOV3 cells assessed as cell growth at 10^-4 M by sulforhodamine B assay; conditions: read-out: Activity
OVCAR-8 = assay: Growth inhibition of human OVCAR8 cells assessed as cell growth at 10^-4 M by sulforhodamine B assay; conditions: read-out: Activity
SK-MEL-5 = assay: Growth inhibition of human SK-MEL-5 cells assessed as cell growth at 10^-4 M by sulforhodamine B assay; conditions: read-out: Activity
M14 [5] = assay: Growth inhibition of human M14 cells assessed as cell growth at 10^-4 M by sulforhodamine B assay; conditions: read-out: Activity
LOX IMVI = assay: Growth inhibition of human LOXIMVI cells assessed as cell growth at 10^-4 M by sulforhodamine B assay; conditions: read-out: Activity
SNB-75 = assay: Growth inhibition of human SNB75 cells assessed as cell growth at 10^-4 M by sulforhodamine B assay; conditions: read-out: Activity
SNB-19 [6] = assay: Growth inhibition of human SNB19 cells assessed as cell growth at 10^-4 M by sulforhodamine B assay; conditions: read-out: Activity
COLO 205 = assay: Growth inhibition of human COLO205 cells assessed as cell growth at 10^-4 M by sulforhodamine B assay; conditions: read-out: Activity
HOP-92 = assay: Growth inhibition of human HOP92 cells assessed as cell growth at 10^-4 M by sulforhodamine B assay; conditions: read-out: Activity
RPMI-8226 = assay: Growth inhibition of human RPMI8226 cells assessed as cell growth at 10^-4 M by sulforhodamine B assay; conditions: read-out: Activity
[7] = Growth inhibition of human Hs 578T cells assessed as cell growth at 10^-6 M by sulforhodamine B assay; conditions: read-out: Activity
RXF 393 [8] = assay: Growth inhibition of human RXF393 cells assessed as cell growth at 10^-6 M by sulforhodamine B assay; conditions: read-out: Activity
OVCAR-5 [9] = assay: Growth inhibition of human OVCAR5 cells assessed as cell growth at 10^-6 M by sulforhodamine B assay; conditions: read-out: Activity
M14 [10] = assay: Growth inhibition of human M14 cells assessed as cell growth at 10^-6 M by sulforhodamine B assay; conditions: read-out: Activity
NCI-H23 [11] = assay: Growth inhibition of human NCI-H23 cells assessed as cell growth at 10^-6 M by sulforhodamine B assay; conditions: read-out: Activity
K562 = assay: Growth inhibition of human K562 cells assessed as cell growth at 10^-6 M by sulforhodamine B assay; conditions: read-out: Activity
DU-145 = assay: Growth inhibition of human DU145 cells assessed as cell growth at 10^-7 M by sulforhodamine B assay; conditions: read-out: Activity
SN12C = assay: Growth inhibition of human SN12C cells assessed as cell growth at 10^-7 M by sulforhodamine B assay; conditions: read-out: Activity
RXF 393 [12] = assay: Growth inhibition of human RXF393 cells assessed as cell growth at 10^-7 M by sulforhodamine B assay; conditions: read-out: Activity
SNB-19 [13] = assay: Growth inhibition of human SNB19 cells assessed as cell growth at 10^-7 M by sulforhodamine B assay; conditions: read-out: Activity
SF-539 = assay: Growth inhibition of human SF539 cells assessed as cell growth at 10^-7 M by sulforhodamine B assay; conditions: read-out: Activity
SF-295 = assay: Growth inhibition of human SF295 cells assessed as cell growth at 10^-7 M by sulforhodamine B assay; conditions: read-out: Activity
HCT-116 = assay: Growth inhibition of human HCT116 cells assessed as cell growth at 10^-7 M by sulforhodamine B assay; conditions: read-out: Activity
T47D [14] = assay: Growth inhibition of human T47D cells assessed as cell growth at 10^-8 M by sulforhodamine B assay; conditions: read-out: Activity
PC-3 = assay: Growth inhibition of human PC3 cells assessed as cell growth at 10^-8 M by sulforhodamine B assay; conditions: read-out: Activity
OVCAR-5 [15] = assay: Growth inhibition of human OVCAR5 cells assessed as cell growth at 10^-8 M by sulforhodamine B assay; conditions: read-out: Activity
[16] = read-out: LC50 (the source's name)
[17] = read-out: pLC50 (the source's name) (converted)

Compound: C/C=C(/C)C(=O)O[C@@H]1CC(C)(C)C[C@H]2C3=CC[C@@H]4[C@@]5(C)CCC(=O)C(C)(C)[C@@H]5CC[C@@]4(C)[C@]3(C)CC[C@@]12C(=O)O [LANTADENE A]
- growth at 0.01 µM (SNB-19 [1]): 93%
- growth at 0.01 µM [2]: 106%
- growth at 0.01 µM (NCI-H23 [3]): 100%
- growth at 0.01 µM (SR): 84%
- growth at 0.01 µM (CCRF-CEM): 98%
- GI50 (T47D [4]; read-out: GI50): 6.15 µM
- CC50 (T47D [4]; [16]): > 100 µM
- TGI (T47D [4]; read-out: TGI): > 100 µM
- GI50 (T47D [4]; read-out: pGI50 (converted)): 6.17 µM
- CC50 (T47D [4]; [17]): > 100 µM
- TGI (T47D [4]; read-out: pTGI (converted)): > 100 µM
- GI50 (A498; read-out: GI50): 2060 nM
- CC50 (A498; [16]): > 100 µM
- TGI (A498; read-out: TGI): 11.6 µM
- GI50 (A498; read-out: pGI50 (converted)): 2040 nM
- CC50 (A498; [17]): > 100 µM
- TGI (A498; read-out: pTGI (converted)): 11.7 µM
- GI50 (UACC-257; read-out: GI50): 4.81 µM
- CC50 (UACC-257; [16]): > 100 µM
- TGI (UACC-257; read-out: TGI): > 100 µM
- GI50 (UACC-257; read-out: pGI50 (converted)): 4.79 µM
- CC50 (UACC-257; [17]): > 100 µM
- TGI (UACC-257; read-out: pTGI (converted)): > 100 µM
- GI50 (MDA-MB-435; read-out: GI50): 5.24 µM
- CC50 (MDA-MB-435; [16]): > 100 µM
- TGI (MDA-MB-435; read-out: TGI): > 100 µM
- GI50 (MDA-MB-435; read-out: pGI50 (converted)): 5.25 µM
- CC50 (MDA-MB-435; [17]): > 100 µM
- TGI (MDA-MB-435; read-out: pTGI (converted)): > 100 µM
- growth at 100 µM (SK-OV-3): 32%
- growth at 100 µM (OVCAR-8): 24%
- growth at 100 µM (SK-MEL-5): -46%
- growth at 100 µM (M14 [5]): 23%
- growth at 100 µM (LOX IMVI): 33%
- growth at 100 µM (SNB-75): 33%
- growth at 100 µM (SNB-19 [6]): 23%
- growth at 100 µM (COLO 205): -51%
- growth at 100 µM (HOP-92): -35%
- growth at 100 µM (RPMI-8226): 10%
- growth at 1 µM [7]: 91%
- growth at 1 µM (RXF 393 [8]): 81%
- growth at 1 µM (OVCAR-5 [9]): 98%
- growth at 1 µM (M14 [10]): 80%
- growth at 1 µM (NCI-H23 [11]): 97%
- growth at 1 µM (K562): 87%
- growth at 0.1 µM (DU-145): 107%
- growth at 0.1 µM (SN12C): 95%
- growth at 0.1 µM (RXF 393 [12]): 91%
- growth at 0.1 µM (SNB-19 [13]): 89%
- growth at 0.1 µM (SF-539): 103%
- growth at 0.1 µM (SF-295): 88%
- growth at 0.1 µM (HCT-116): 90%
- growth at 0.01 µM (T47D [14]): 99%
- growth at 0.01 µM (PC-3): 93%
- growth at 0.01 µM (OVCAR-5 [15]): 101%

Compound: CC(C)=CC(=O)O[C@@H]1CC(C)(C)C[C@H]2C3=CC[C@@H]4[C@@]5(C)CCC(=O)C(C)(C)[C@@H]5CC[C@@]4(C)[C@]3(C)CC[C@@]12C(=O)O
- growth at 0.01 µM (SNB-19 [1]): 98%
- growth at 0.01 µM [2]: 97%
- growth at 0.01 µM (NCI-H23 [3]): 94%
- growth at 0.01 µM (SR): 109%
- growth at 0.01 µM (CCRF-CEM): 104%
- GI50 (T47D [4]; read-out: GI50): 5.08 µM
- CC50 (T47D [4]; [16]): > 100 µM
- TGI (T47D [4]; read-out: TGI): > 100 µM
- GI50 (T47D [4]; read-out: pGI50 (converted)): 5.13 µM
- CC50 (T47D [4]; [17]): > 100 µM
- TGI (T47D [4]; read-out: pTGI (converted)): > 100 µM
- GI50 (A498; read-out: GI50): 1590 nM
- CC50 (A498; [16]): > 100 µM
- TGI (A498; read-out: TGI): 14.2 µM
- GI50 (A498; read-out: pGI50 (converted)): 1580 nM
- CC50 (A498; [17]): > 100 µM
- TGI (A498; read-out: pTGI (converted)): 14.1 µM
- GI50 (UACC-257; read-out: GI50): 4.98 µM
- CC50 (UACC-257; [16]): > 100 µM
- TGI (UACC-257; read-out: TGI): 50.6 µM
- GI50 (UACC-257; read-out: pGI50 (converted)): 5.01 µM
- CC50 (UACC-257; [17]): > 100 µM
- TGI (UACC-257; read-out: pTGI (converted)): 50.1 µM
- GI50 (MDA-MB-435; read-out: GI50): 6.22 µM
- CC50 (MDA-MB-435; [16]): > 100 µM
- TGI (MDA-MB-435; read-out: TGI): > 100 µM
- GI50 (MDA-MB-435; read-out: pGI50 (converted)): 6.17 µM
- CC50 (MDA-MB-435; [17]): > 100 µM
- TGI (MDA-MB-435; read-out: pTGI (converted)): > 100 µM
- growth at 100 µM (SK-OV-3): 15%
- growth at 100 µM (OVCAR-8): 11%
- growth at 100 µM (SK-MEL-5): -78%
- growth at 100 µM (M14 [5]): -62%
- growth at 100 µM (LOX IMVI): -47%
- growth at 100 µM (SNB-75): -31%
- growth at 100 µM (SNB-19 [6]): 7%
- growth at 100 µM (COLO 205): -76%
- growth at 100 µM (HOP-92): -50%
- growth at 100 µM (RPMI-8226): -19%
- growth at 1 µM [7]: 86%
- growth at 1 µM (RXF 393 [8]): 85%
- growth at 1 µM (OVCAR-5 [9]): 86%
- growth at 1 µM (M14 [10]): 87%
- growth at 1 µM (NCI-H23 [11]): 88%
- growth at 1 µM (K562): 75%
- growth at 0.1 µM (DU-145): 105%
- growth at 0.1 µM (SN12C): 96%
- growth at 0.1 µM (RXF 393 [12]): 94%
- growth at 0.1 µM (SNB-19 [13]): 88%
- growth at 0.1 µM (SF-539): 91%
- growth at 0.1 µM (SF-295): 83%
- growth at 0.1 µM (HCT-116): 98%
- growth at 0.01 µM (T47D [14]): 103%
- growth at 0.01 µM (PC-3): 96%
- growth at 0.01 µM (OVCAR-5 [15]): 94%

— ChEMBL document CHEMBL2413072, “Synthesis and in vitro anticancer studies of novel C-2 arylidene congeners of lantadenes” (2013)
